# Assay results from patent publication EP3262036B1, “THERAPEUTIC PYRIDAZINE COMPOUNDS AND USES THEREOF” (priority 2015, dated 2016).
# Biological target: BRG1 (Homo sapiens, UniProt P51532)
# Assay: biochemical
# Assay type: binding
# Settings: BRG1 HTRF IC50 (µM)
# Description: IC50 measurements for inhibitors using BRG1 TR-FRET Binding Assay
# Sequence of BRG1 (P51532 1448-1575): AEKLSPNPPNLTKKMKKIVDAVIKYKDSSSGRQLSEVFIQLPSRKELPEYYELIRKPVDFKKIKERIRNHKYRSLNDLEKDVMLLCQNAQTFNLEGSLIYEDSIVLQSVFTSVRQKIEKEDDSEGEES
row,Compound,IC50 [µM]
1,"Nc1nnc(-c2ccccc2O)cc1N1CCN(S(=O)(=O)c2ccccc2)CC1 [Example 11, 2-(6-amino-5-(4-(phenylsulfonyl)piperazin-1-yl)pyridazin-3-yl)phenol]",0.0612
2,"Nc1nnc(-c2ccccc2O)cc1N1CCN(Cc2ccccc2)CC1 [Example 12, 2-(6-amino-5-(4-benzylpiperazin-1-yl)pyridazin-3-yl)phenol]",0.0612
3,"Nc1nnc(-c2ccccc2O)cc1N1CCN(c2ccccc2)CC1 [Example 13, 2-(6-amino-5-(4-phenylpiperazin-1-yl)pyridazin-3-yl)phenol]",0.0321
4,"Nc1nnc(-c2ccccc2O)cc1N1CCN(Cc2ccccc2)C(=O)C1 [Example 14, 4-(3-amino-6-(2-hydroxyphenyl)pyridazin-4-yl)-1-benzylpiperazin-2-one]",0.0735
5,"Nc1nnc(-c2ccccc2O)cc1N1C[C@@H]2C[C@H]1CN2Cc1ccccc1 [Example 17, 2-(6-amino-5-((1S,4S)-5-benzyl-2,5-diazabicyclo[2.2.1]heptan-2-yl)pyridazin-3-yl)phenol]",0.147
6,"CC1CN(c2cc(-c3ccccc3O)nnc2N)CCN1Cc1ccccc1 (stereo not shown) [Example 22, 2-(6-amino-5-(4-benzyl-3-methylpiperazin-1-yl)pyridazin-3-yl)phenol]",0.0421
7,"Nc1nnc(-c2ccccc2O)cc1N1CCNC(C(F)(F)F)C1 (stereo not shown) [Example 23, 2-(6-amino-5-(3-(trifluoromethyl)piperazin-1-yl)pyridazin-3-yl)phenol]",0.172
8,"CN1CCOC2(CCN(c3cc(-c4ccccc4O)nnc3N)CC2)C1 [Example 25, 2-(6-amino-5-(4-methyl-1-oxa-4,9-diazaspiro[5.5]undecan-9-yl)pyridazin-3-yl)phenol]",0.0176
9,"CS(=O)(=O)CCN1CCN(c2cc(-c3ccccc3O)nnc2N)CC1 [Example 26, 2-(6-amino-5-(4-(2-(methylsulfonyl)ethyl)piperazin-1-yl)pyridazin-3-yl)phenol]",0.0978
10,"Nc1nnc(-c2ccccc2O)cc1N1CCC2(CC1)CNC(=O)C2 [Example 29, 8-(3-amino-6-(2-hydroxyphenyl)pyridazin-4-yl)-2,8-diazaspiro[4.5]decan-3-one]",0.0566
11,"CN(CCc1ccccc1)c1cc(-c2ccccc2O)nnc1N [Example 36, 2-(6-amino-5-(methyl(phenethyl)amino)pyridazin-3-yl)phenol]",0.0962
12,"CC1CN(c2cc(-c3ccccc3O)nnc2N)CC(C)N1Cc1ccccc1 (stereo not shown) [Example 37, 2-(6-amino-5-(4-benzyl-3,5-dimethylpiperazin-1 - yl)pyridazin-3-yl)phenol]",0.102
13,"Nc1nnc(-c2ccccc2O)cc1N1CCC(O)(Cc2ccccc2)C1 (stereo not shown) [Example 39, 1-(3-amino-6-(2-hydroxyphenyl)pyridazin-4-yl)-3-benzylpyrrolidin-3-ol]",0.113
14,"COC1(Cc2ccccc2)CCN(c2cc(-c3ccccc3O)nnc2N)C1 (stereo not shown) [Example 40, 2-(6-amino-5-(3-benzyl-3-methoxypyrrolidin-1-yl)pyridazin-3-yl)phenol]",0.0794
15,"Nc1nnc(-c2ccccc2O)cc1N1CC2CC1CN2c1ccccn1 (stereo not shown) [Example 41, 2-(6-amino-5-(5-(pyridin-2-yl)-2,5-diazabicyclo[2.2.1]heptan-2-yl)pyridazin-3-yl)phenol]",0.0282
16,"Nc1nnc(-c2ccccc2O)cc1N1CCC(O)(c2ccccc2)CC1 [Example 42, 1-(3-amino-6-(2-hydroxyphenyl)pyridazin-4-yl)-4-phenylpiperidin-4-ol]",0.0113

row,Compound,IC50 [µM]
1,"Nc1nnc(-c2ccccc2O)cc1N1CC2CCC(C1)N2c1cncnc1 [Example 43, 2-(6-amino-5-(8-(pyrimidin-5-yl)-3,8-diazabicyclo[3.2.1]octan-3-yl)pyridazin-3-yl)phenol]",0.0193
2,"CC1CN(c2cc(-c3ccccc3O)nnc2N)CCC1(O)c1ccccc1 (stereo not shown) [Example 44, 1-(3-amino-6-(2-hydroxyphenyl)pyridazin-4-yl)-3-methyl-4-phenylpiperidin-4-ol]",0.0253
3,"Cn1cc(N2C3CCC2CN(c2cc(-c4ccccc4O)nnc2N)C3)cn1 [Example 48, 2-(6-amino-5-(8-(1-methyl-1H-pyrazol-4-yl)-3,8-diazabicyclo[3.2.1]octan-3-yl)pyridazin-3-yl)phenol]",0.0309
4,"Nc1nnc(-c2ccccc2O)cc1N1CCNC(Cc2ccccc2)C1 (stereo not shown) [Example 49, 2-(6-amino-5-(3-benzylpiperazin-1-yl)pyridazin-3-yl)phenol]",0.0848
5,"Nc1nnc(-c2ccccc2O)cc1N1CC2CCC(C1)N2c1cnccn1 [Example 50, 2-(6-amino-5-(8-(pyrazin-2-yl)-3,8-diazabicyclo[3.2.1]octan-3-yl)pyridazin-3-yl)phenol]",0.0106
6,"Nc1nnc(-c2ccccc2O)cc1N1CCc2[nH]ncc2C1 [Example 52, 2-(6-amino-5-(1,4,6,7-tetrahydro-5H-pyrazolo[4,3-c]pyridin-5-yl)pyridazin-3-yl)phenol]",0.128
7,"Nc1nnc(-c2ccccc2O)cc1N1CCC(c2ccccc2)C1 (stereo not shown) [Example 55, 2-(6-amino-5-(3-phenylpyrrolidin-1-yl)pyridazin-3-yl)phenol]",0.123
8,"Nc1nnc(-c2ccccc2O)cc1N1CC(OCc2ccccc2)C1 [Example 58, 2-(6-amino-5-(3-(benzyloxy)azetidin-1-yl)pyridazin-3-yl)phenol]",0.0252
9,"Nc1nnc(-c2ccccc2O)cc1N1CCCC(O)(c2ccccc2)C1 (stereo not shown) [Example 59, 1-(3-amino-6-(2-hydroxyphenyl)pyridazin-4-yl)-3-phenylpiperidin-3-ol]",0.0158
10,"Nc1nnc(-c2ccccc2O)cc1N1CCN(C(=O)c2ccccc2)CC1 [Example 61, (4-(3-amino-6-(2-hydroxyphenyl)pyridazin-4-yl)piperazin-1-yl)(phenyl)methanone]",0.0348
11,"CC1CN(c2cc(-c3ccccc3O)nnc2N)CCN1C(=O)c1ccccc1 (stereo not shown) [Example 62, (4-(3-amino-6-(2-hydroxyphenyl)pyridazin-4-yl)-2-methylpiperazin-1-yl)(phenyl)methanone]",0.0117
12,"Nc1nnc(-c2ccccc2O)cc1N1CCN(c2ccccc2)C(=O)C1 [Example 64, 4-(3-amino-6-(2-hydroxyphenyl)pyridazin-4-yl)-1-phenylpiperazin-2-one]",0.208
13,"CC(=O)N1C2CCC1CN(c1cc(-c3ccccc3O)nnc1N)C2 [Example 66, 1-(3-(3-amino-6-(2-hydroxyphenyl)pyridazin-4-yl)-3,8-diazabicyclo[3.2.1]octan-8-yl)ethan-1-one]",0.0713
14,"CS(=O)(=O)N1C2CCC1CN(c1cc(-c3ccccc3O)nnc1N)C2 [Example 67, 2-(6-amino-5-(8-(methylsulfonyl)-3,8-diazabicyclo[3.2.1]octan-3-yl)pyridazin-3-yl)phenol]",0.0294
15,"Cn1cc(N2CCN(c3cc(-c4ccccc4O)nnc3N)CC2)cn1 [Example 68, 2-(6-amino-5-(4-(1-methyl-1H-pyrazol-4-yl)piperazin-1-yl)pyridazin-3-yl)phenol]",0.0367
16,"Nc1nnc(-c2ccccc2O)cc1N1C[C@H]2C[C@@H]1CN2c1ccccn1 [Example 74, 2-(6-amino-5-((1R,4R)-5-(pyridin-2-yl)-2,5-diazabicyclo[2.2.1]heptan-2-yl)pyridazin-3-yl)phenol]",0.0106

# Results, then the molecule that gave them:
row,IC50 [µM],Compound
1,0.296,"CN1CCCN(c2cc(-c3ccccc3O)nnc2N)CC1 [Example 2, 2-(6-amino-5-(4-methyl-1,4-diazepan-1-yl)pyridazin-3-yl)phenol]"
2,0.0967,"Nc1nnc(-c2ccccc2O)cc1N1CCC(c2ccccc2)CC1 [Example 18, 2-(6-amino-5-(4-phenylpiperidin-1-yl)pyridazin-3-yl)phenol]"
3,0.0564,"CN(C)C(=O)C1CCN(c2cc(-c3ccccc3O)nnc2N)CC1 [Example 19, 1-(3-amino-6-(2-hydroxyphenyl)pyridazin-4-yl)-N,N-dimethylpiperidine-4-carboxamide]"
4,0.0358,"CC(C)(O)C1CCN(c2cc(-c3ccccc3O)nnc2N)CC1 [Example 20, 2-(6-amino-5-(4-(2-hydroxypropan-2-yl)piperidin-1-yl)pyridazin-3-yl)phenol]"
5,0.116,"CN(C)CC1CCCN(c2cc(-c3ccccc3O)nnc2N)C1 (stereo not shown) [Example 21, 2-(6-amino-5-(3-((dimethylamino)methyl)piperidin-1-yl)pyridazin-3-yl)phenol]"
6,0.0746,"CNC(=O)CN1CCN(c2cc(-c3ccccc3O)nnc2N)CC1 [Example 24, 2-(4-(3-amino-6-(2-hydroxyphenyl)pyridazin-4-yl)piperazin-1-yl)-N-methylacetamide]"
7,0.0755,"Nc1nnc(-c2ccccc2O)cc1N1CCN(CC(F)(F)F)CC1 [Example 27, 2-(6-amino-5-(4-(2,2,2-trifluoroethyl)piperazin-1-yl)pyridazin-3-yl)phenol]"
8,0.0208,"CN(C)CC1(O)CCN(c2cc(-c3ccccc3O)nnc2N)CC1 [Example 31, 1-(3-amino-6-(2-hydroxyphenyl)pyridazin-4-yl)-4-((dimethylamino)methyl) piperidin-4-ol]"
9,0.0921,"Nc1nnc(-c2ccccc2O)cc1N1CCC(O)C1 (stereo not shown) [Example 38, 1-(3-amino-6-(2-hydroxyphenyl)pyridazin-4-yl)pyrrolidin-3-ol]"
10,0.414,"Nc1nnc(-c2ccccc2O)cc1N1CCS(=O)(=O)CC1 [Example 46, 4-(3-amino-6-(2-hydroxyphenyl)pyridazin-4-yl)thiomorpholine 1,1-dioxide]"
11,0.316,"Nc1nnc(-c2ccccc2O)cc1N1CCNC(=O)C1 [Example 53, 4-(3-amino-6-(2-hydroxyphenyl)pyridazin-4-yl)piperazin-2-one]"
12,0.0247,"C[C@@H](C1CCN(c2cc(-c3ccccc3O)nnc2N)CC1)N(C)C [Example 60, (S)-2-(6-amino-5-(4-(1-(dimethylamino)ethyl)piperidin-1-yl)pyridazin-3-yl)phenol]"
13,0.0276,"C[C@H](C1CCN(c2cc(-c3ccccc3O)nnc2N)CC1)N(C)C [Example 65, (R)-2-(6-amino-5-(4-(1-(dimethylamino)ethyl)piperidin-1-yl)pyridazin-3-yl)phenol]"
14,0.0824,"NC(=O)C1CCN(c2cc(-c3ccccc3O)nnc2N)CC1 [Example 73, 1-(3-amino-6-(2-hydroxyphenyl)pyridazin-4-yl)piperidine-4-carboxamide]"
